Data reported in patent US8138191B2, “Inhibitor compounds and cancer treatment methods” (Critical Outcome Technologies Inc., priority 2007, dated 2012).

Columns and labels:
CYP2C19 = CYP2C19 (Homo sapiens, UniProt P33261); assay: CYP2C19 Inhibition (HLM, omeprazole substrate)
CYP2C8 = target: T1, CYP2C8 (Homo sapiens, UniProt P10632); assay: CYP2C8 Inhibition (HLM, paclitaxel substrate)
T1 sequence (P10632 1-490): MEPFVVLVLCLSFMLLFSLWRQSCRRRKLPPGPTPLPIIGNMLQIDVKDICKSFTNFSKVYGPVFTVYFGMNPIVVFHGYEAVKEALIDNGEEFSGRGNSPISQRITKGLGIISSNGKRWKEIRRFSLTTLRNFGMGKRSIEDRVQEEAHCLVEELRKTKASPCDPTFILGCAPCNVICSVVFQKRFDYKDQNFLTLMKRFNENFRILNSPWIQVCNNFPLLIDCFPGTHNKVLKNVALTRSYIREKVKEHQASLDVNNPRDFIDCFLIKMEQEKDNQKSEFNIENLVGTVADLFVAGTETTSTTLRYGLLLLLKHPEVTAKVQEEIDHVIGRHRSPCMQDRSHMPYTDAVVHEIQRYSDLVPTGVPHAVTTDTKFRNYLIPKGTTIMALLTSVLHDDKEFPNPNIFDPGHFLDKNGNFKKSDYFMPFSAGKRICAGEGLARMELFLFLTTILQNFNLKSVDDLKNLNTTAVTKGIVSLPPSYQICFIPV

CYP2C9 = CYP2C9 (Homo sapiens, UniProt P11712); assay: CYP2C9 Inhibition (HLM, diclofenac substrate)
CYP2C9, sequence (P11712 whole entry): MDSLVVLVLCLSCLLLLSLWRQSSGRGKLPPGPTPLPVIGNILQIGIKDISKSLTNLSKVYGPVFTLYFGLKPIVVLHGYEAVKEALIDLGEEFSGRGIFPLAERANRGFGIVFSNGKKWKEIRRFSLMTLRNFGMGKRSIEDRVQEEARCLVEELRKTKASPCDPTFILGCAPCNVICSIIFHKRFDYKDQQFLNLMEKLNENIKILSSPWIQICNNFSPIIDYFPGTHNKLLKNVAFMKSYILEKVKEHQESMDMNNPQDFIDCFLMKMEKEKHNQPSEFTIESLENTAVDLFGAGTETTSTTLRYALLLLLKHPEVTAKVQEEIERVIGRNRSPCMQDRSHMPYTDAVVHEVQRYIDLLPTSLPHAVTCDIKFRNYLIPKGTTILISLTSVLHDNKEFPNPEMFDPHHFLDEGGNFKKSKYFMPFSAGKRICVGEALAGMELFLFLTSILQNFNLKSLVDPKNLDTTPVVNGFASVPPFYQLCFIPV

CYP2C19, sequence (P33261 whole entry): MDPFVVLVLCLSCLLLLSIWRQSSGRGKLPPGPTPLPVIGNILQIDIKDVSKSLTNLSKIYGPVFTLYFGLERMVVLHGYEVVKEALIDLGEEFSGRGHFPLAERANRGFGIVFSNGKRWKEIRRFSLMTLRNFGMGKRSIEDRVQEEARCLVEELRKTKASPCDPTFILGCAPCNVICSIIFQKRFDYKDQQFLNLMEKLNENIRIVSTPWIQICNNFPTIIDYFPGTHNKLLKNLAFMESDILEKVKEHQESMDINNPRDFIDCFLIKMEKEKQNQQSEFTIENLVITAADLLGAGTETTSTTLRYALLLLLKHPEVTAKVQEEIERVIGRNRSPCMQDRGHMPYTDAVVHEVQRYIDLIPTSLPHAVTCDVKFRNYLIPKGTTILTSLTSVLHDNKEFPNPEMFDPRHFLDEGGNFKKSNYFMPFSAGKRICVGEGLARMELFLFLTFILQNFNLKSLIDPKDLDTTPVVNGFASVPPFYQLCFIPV

## CCN(CC)CC#CCOC(=O)C(O)(c1ccccc1)C1CCCCC1 (stereo not drawn) [Oxybutynin]
CYP2C19
  nH: 1.1

## COC(=O)C1=C(C)NC(C)=C(C(=O)OCCN(C)Cc2ccccc2)C1c1cccc([N+](=O)[O-])c1 (stereo not drawn) [Nicardipine]
CYP2C8
  nH: 1.2

## Nc1ccc(S(=O)(=O)Nc2ccnn2-c2ccccc2)cc1 [Sulfaphenazole]
CYP2C9
  nH: 1.1
